Type in all cases: functional
Test [1] has as its system Tuta absoluta. Kind of test: Insecticidal activity against second-instar larval stage of Tuta absoluta assessed as mortality at 5 ug/mg applied topically on thoracic tergite after 12 hr (reference value: 1.7%).
The test system of test [2] is Sitophilus zeamais. Kind of test: Insecticidal activity against […] Sitophilus zeamais assessed as mortality at 5 ug/mg applied topically on thoracic tergite after 24 hr relative to control.
In test [3] the test system is Ascia monuste. Description: Insecticidal activity against second-instar larval stage of Ascia monuste orseis assessed as mortality at 5 ug/mg applied topically on thoracic tergite after 12 hr relative to control.
Test [4] has as its system Ascia monuste. Description: Insecticidal activity against second-instar larval stage of Ascia monuste orseis assessed as mortality at 5 ug/mg applied topically on thoracic tergite after 24 hr (reference value: 1.7%).
Test [5] deals with Tuta absoluta. Description: Insecticidal activity against second-instar larval stage of Tuta absoluta assessed as mortality at 5 ug/mg applied topically on thoracic tergite after 24 hr (reference value: 1.7%).
Test [6] has as its system Musca domestica. Description: Insecticidal activity against second-instar larval stage of Musca domestica (house fly) assessed as mortality at 5 ug/mg applied topically on thoracic tergite after 12 hr relative to control.
Test [7] deals with Sitophilus zeamais. Kind of test: Insecticidal activity against […] Sitophilus zeamais assessed as mortality at 5 ug/mg applied topically on thoracic tergite after 12 hr relative to control.
The test system of test [8] is Periplaneta americana. Kind of test: Insecticidal activity against second-instar nymph stage of Periplaneta americana (American cockroach) assessed as mortality at 5 ug/mg applied topically on thoracic tergite after 12 hr (reference value: 1.7%).
In test [9] the test system is Musca domestica. Kind of test: Insecticidal activity against second-instar larval stage of Musca domestica (house fly) assessed as mortality at 5 ug/mg applied topically on thoracic tergite after 24 hr relative to control.
For test [10], the system named is Periplaneta americana. Description: Insecticidal activity against second-instar nymph stage of Periplaneta americana (American cockroach) assessed as mortality at 5 ug/mg applied topically on thoracic tergite after 24 hr (reference value: 1.7%).

As a reminder, the mortality is the share of the test organisms that died. In the case of `COC(=O)[C@H]1[C@H](/C=C\c2ccccc2)C1(C)C`, the mortality is 12.5% in test [1]; 12.5% in [2]; 7.5% in [3]; 50% in [4]; 21.9% in test [5]; 7.5% in test [6]. Further, the mortality in test [7] was 10%; in test [8] it was 15.6%; in [9] it was 12.5%; in [10] it was 37.4%.
Take `COC(=O)[C@H]1[C@H](/C=C\c2ccc(Br)cc2)C1(C)C`: the mortality in test [1] amounted to 15.6%; in test [2], 0%; in test [3] it was 15%; in test [4], 85%; in [5] it was 18.1%; in test [6] it was 15%. Moreover, the mortality in test [7] stood at 0%; in test [8] it was 70%; in test [9], 25%; in test [10] it was 72.5%.
On to `COC(=O)[C@H]1[C@H](/C=C\c2ccc([N+](=O)[O-])cc2)C1(C)C`, for which the mortality is recorded as 42.5% in [1]; 0% in [2]; 20% in [3]; 45% in test [4]; 67.5% in test [5]; 20% in test [6]. For the same molecule, the mortality in [7] is on record as 0%; in test [8], 10.9%; in test [9], 27.5%; in test [10] it was 24.3%.
As for `COC(=O)[C@H]1[C@H](/C=C/c2ccc(Br)cc2)C1(C)C`, the mortality in [1] was 15%; in test [2], 0%; in [3], 5%; in test [4] it was 85%; in test [5] it was 25%; in [6], 12.5%. In addition, the mortality in test [7] is 0%; in test [8], 55%; in test [9] it was 22.5%; in test [10], 65%.
For the molecule `COC(=O)[C@H]1[C@H](/C=C/c2ccc([N+](=O)[O-])cc2)C1(C)C`, the mortality is recorded as 35% in test [1]; 0% in test [2]; 2.5% in [3]; 36.4% in test [4]; 55% in [5]; 17.5% in test [6]. The mortality in test [7] stood at 0%; in [8], 10%; in [9] it was 25%; in [10], 20%.
For `COC(=O)[C@H]1[C@H](/C=C/c2ccc(F)cc2)C1(C)C`, the mortality in [1] came out at 60%; in test [2], 7.5%; in test [3] it was 65%; in [4], 90%; in [5], 77.5%; in test [6] it was 10%. The mortality in [7] turned out to be 5%; in test [8], 62.5%; in test [9], 15%; in [10], 67.5%.
Turning to `COC(=O)[C@H]1[C@H](/C=C\c2ccc(F)cc2)C1(C)C`, the mortality in test [1] came out at 87.5%; in test [2] it was 10%; in test [3] it was 67.5%; in test [4] it was 92.5%; in [5] it was 90%; in test [6] it was 12.5%. Besides, the mortality is reported as 7.5% in test [7], 65% in test [8], 15% in test [9] and 67.5% in test [10].
In the case of `CC1(C)C(C=C(Cl)Cl)C1C(=O)OCc1cccc(Oc2ccccc2)c1` (stereo not given) [PERMETHRIN], the mortality in test [1] is recorded as 93.2%; in test [2] it was 17.5%; in test [3] it was 100%; in test [4], 100%; in test [5] it was 97.5%; in test [6] it was 72.5%. For the same molecule, the mortality in test [7] turned out to be 17.5%; in [8], 87.5%; in test [9] it was 72.5%; in test [10], 97.5%.
With `COC(=O)[C@H]1[C@H](/C=C/c2ccccc2)C1(C)C`, the mortality came out at 12.5% in [1]; 12.5% in test [2]; 7.5% in [3]; 50% in test [4]; 21.9% in test [5]; 7.5% in test [6]. The mortality in test [7] is recorded as 10%; in [8] it was 15.6%; in test [9], 12.5%; in [10], 37.4%.
For the molecule `COC(=O)[C@H]1[C@H](/C=C\c2ccc(Cl)cc2)C1(C)C`, the mortality in test [1] amounted to 100%; in [2], 0%; in test [3], 85%; in [4] it was 90%; in [5], 100%; in [6] it was 20%. In addition, the mortality amounted to 0% in [7], 92.5% in test [8], 25% in test [9] and 100% in [10].
With `COC(=O)[C@H]1[C@H](/C=C/c2ccc(Cl)cc2)C1(C)C`, the mortality in test [1] was found to be 67.5%; in test [2], 0%; in test [3], 80%; in test [4] it was 82.5%; in test [5], 72.5%; in [6], 17.5%. In addition, the mortality stood at 0% in test [7], 87.5% in test [8], 22.5% in test [9] and 95% in [10].

For the origin of these results see ChEMBL document CHEMBL3045231, “Synthesis and insecticidal activity of new pyrethroids” (2009).
